From US10945435B2, “Imidazopyrimidine derivatives with sulfur containing phenyl and pyridyl substituents” (SYNGENTA PARTICIPATIONS AG, priority 2017, dated 2021)

Assays:
Format in all cases: in vivo
[1] = system: Bemisia tabaci (Cotton White Fly); assay: Example B1 Bemisia tabaci feeding/contact activity; conditions: foliar, 144 h, application rate of 200 ppm, adult white flies on sprayed cotton leaf discs, 6 days after incubation
Procedure: Bemisia tabaci (Cotton White Fly): Feeding/Contact Activity
Cotton leaf discs were placed on agar in 24-well microtiter plates and sprayed with aqueous test solutions prepared from 10,000 ppm DMSO stock solutions. After drying the leaf discs were infested with adult white flies. The samples were checked for mortality 6 days after incubation.

[2] = system: Diabrotica balteata (Corn Root Worm); assay: Example B2 Diabrotica balteata mortality and growth inhibition; conditions: 96 h, application rate of 200 ppm, L2 larvae on sprayed maize sprouts, 4 days after infestation, read-out: effect in at least one of the two categories (mortality or growth inhibition)
Procedure: Diabrotica balteata (Corn Root Worm)
(§1) Maize sprouts placed onto an agar layer in 24-well microtiter plates were treated with aqueous test solutions prepared from 10,000 ppm DMSO stock solutions by spraying. After drying, the plates were infested with L2 larvae (6 to 10 per well). The samples were assessed for mortality and growth inhibition in comparison to untreated samples 4 days after infestation.

[3] = system: Diabrotica balteata (Corn Root Worm); assay: Example B4 Diabrotica balteata mortality; conditions: 96 h, application rate of 200 ppm, L2 larvae on sprayed maize sprouts, 4 days after infestation
Procedure: Diabrotica Balteata (Corn Root Worm):
as §1, with “mortality” for “mortality and growth inhibition in comparison to untreated samples”

[4] = system: Euschistus heros (Neotropical Brown Stink Bug); assay: Example B5 Euschistus heros mortality and growth inhibition; conditions: 120 h, application rate of 200 ppm, N2 nymphs on sprayed soybean leaves, 5 days after infestation, read-out: effect in at least one of the two categories (mortality or growth inhibition)
Procedure: Euschistus heros (Neotropical Brown Stink Bug)
Soybean leaves on agar in 24-well microtiter plates were sprayed with aqueous test solutions prepared from 10,000 ppm DMSO stock solutions. After drying the leaves were infested with N2 nymphs. The samples were assessed for mortality and growth inhibition in comparison to untreated samples 5 days after infestation.

[5] = system: Euschistus heros (Neotropical Brown Stink Bug); assay: Example B7 Euschistus heros feeding/contact activity; conditions: 120 h, application rate of 200 ppm, N2 nymphs on sprayed soybean leaves, 5 days after infestation
Procedure: Euschistus heros (Neotropical Brown Stink Bug): Feeding/Contact Activity
Soybean leaves on agar in 24-well microtiter plates were sprayed with aqueous test solutions prepared from 10,000 ppm DMSO stock solutions. After drying the leaves were infested with N2 nymphs. The samples were assessed for mortality 5 days after infestation.

[6] = system: Myzus persicae (Green Peach Aphid); assay: Example B9 Myzus persicae feeding/contact activity; conditions: foliar, 144 h, application rate of 200 ppm, mixed-age aphids on sprayed sunflower leaf discs, 6 days after infestation
Procedure: Myzus persicae (Green Peach Aphid): Feeding/Contact Activity
Sunflower leaf discs were placed onto agar in a 24-well microtiter plate and sprayed with aqueous test solutions prepared from 10,000 ppm DMSO stock solutions. After drying, the leaf discs were infested with an aphid population of mixed ages. The samples were assessed for mortality 6 days after infestation.

[7] = system: Plutella xylostella (Diamond Back Moth); assay: Example B11 Plutella xylostella growth inhibition activity; conditions: 120 h, application rate of 200 ppm, L2 larvae on treated artificial diet, 5 days after infestation
Procedure: Plutella xylostella (Diamond Back Moth): Growth Inhibition Activity
24-well microtiter plates with artificial diet were treated with aqueous test solutions prepared from 10,000 ppm DMSO stock solutions by pipetting. After drying, the plates were infested with L2 larvae (10 to 15 per well). The samples were assessed for growth inhibition in comparison to untreated samples 5 days after infestation. Control of Plutella xylostella by a test sample is given when the growth inhibition is higher than the untreated sample.

[8] = system: Plutella xylostella (Diamond Back Moth); assay: Example B12 Plutella xylostella feeding/contact activity; conditions: 120 h, application rate of 200 ppm, L2 larvae on treated artificial diet, 5 days after infestation
Procedure: Plutella xylostella (Diamond Back Moth): Feeding/Contact Activity
(§2) 24-well microtiter plates with artificial diet were treated with aqueous test solutions prepared from 10,000 ppm DMSO stock solutions by pipetting. After drying, the plates were infested with L2 larvae (10 to 15 per well). The samples were assessed for mortality 5 days after infestation.

[9] = system: Plutella xylostella (Diamond Back Moth); assay: Example B13 Plutella xylostella mortality and growth inhibition; conditions: 120 h, application rate of 200 ppm, L2 larvae on treated artificial diet, 5 days after infestation, read-out: effect in at least one of the two categories (mortality or growth inhibition)
Procedure: Plutella xylostella (Diamond Back Moth)
as §2, with “mortality and growth inhibition in comparison to untreated samples” for “mortality”

[10] = system: Spodoptera littoralis (Egyptian Cotton Leaf Worm); assay: Example B14 Spodoptera littoralis anti-feeding activity; conditions: foliar, 72 h, application rate of 200 ppm, L1 larvae on sprayed cotton leaf discs, 3 days after infestation, read-out: control (anti-feeding effect)
Procedure: Spodoptera littoralis (Egyptian Cotton Leaf Worm): Anti-Feeding Activity
(§3) Cotton leaf discs were placed onto agar in 24-well microtiter plates and sprayed with aqueous test solutions prepared from 10,000 ppm DMSO stock solutions. After drying the leaf discs were infested with five L1 larvae. The samples were assessed for anti-feeding effect in comparison to untreated samples 3 days after infestation. Control of Spodoptera littoralis by a test sample is given when the anti-feedant effect is higher than the untreated sample.

[11] = system: Spodoptera littoralis (Egyptian Cotton Leaf Worm); assay: Example B15 Spodoptera littoralis growth inhibition activity; conditions: foliar, 72 h, application rate of 200 ppm, L1 larvae on sprayed cotton leaf discs, 3 days after infestation, read-out: control (growth inhibition)
Procedure: Spodoptera littoralis (Egyptian Cotton Leaf Worm): Growth Inhibition Activity
as §3, with “growth inhibition” for “anti-feeding effect”, “growth inhibition” for “anti-feedant effect”

[12] = system: Spodoptera littoralis (Egyptian Cotton Leaf Worm); assay: Example B16 Spodoptera littoralis feeding/contact activity; conditions: foliar, 72 h, application rate of 200 ppm, L1 larvae on sprayed cotton leaf discs, 3 days after infestation
Procedure: Spodoptera littoralis (Egyptian Cotton Leaf Worm): Feeding/Contact Activity
Cotton leaf discs were placed onto agar in 24-well microtiter plates and sprayed with aqueous test solutions prepared from 10,000 ppm DMSO stock solutions. After drying the leaf discs were infested with five L1 larvae. The samples were assessed for mortality 3 days after infestation.

[13] = system: Myzus persicae (Green Peach Aphid); assay: Example B10 Myzus persicae systemic activity; conditions: 144 h, test rate of 24 ppm, roots of infested pea seedlings in test solution, 6 days
Procedure: Myzus persicae (Green Peach Aphid). Systemic Activity
Roots of pea seedlings infested with an aphid population of mixed ages were placed directly into aqueous test solutions prepared from 10,000 DMSO stock solutions. The samples were assessed for mortality 6 days after placing seedlings into test solutions.

[14] = system: Frankliniella occidentalis (Western Flower Thrips); assay: Example B8 Frankliniella occidentalis feeding/contact activity; conditions: foliar, 168 h, application rate of 200 ppm, mixed-age population on sprayed sunflower leaf discs, 7 days after infestation
Procedure: Frankliniella occidentalis (Western Flower Thrips): Feeding/Contact Activity
Sunflower leaf discs were placed on agar in 24-well microtiter plates and sprayed with aqueous test solutions prepared from 10,000 DMSO stock solutions. After drying the leaf discs were infested with a Frankliniella population of mixed ages. The samples were assessed for mortality 7 days after infestation.

CCS(=O)(=O)c1cc(OCC(F)F)cnc1-c1cn2cnc(SC(F)(F)F)cc2n1 [Compound P4, 2-[5-(2,2-difluoroethoxy)-3-ethylsulfonyl-2-pyridyl]-7-(trifluoromethylsulfanyl)imidazo[1,2-c]pyrimidine]
≥ 80%: mortality at 200 ppm [1] | percent effect (mortality or growth inhibition) at 200 ppm [2] | mortality at 200 ppm [3] | percent effect (mortality or growth inhibition) at 200 ppm [4] | mortality at 200 ppm [5] | mortality at 200 ppm [6] | inhibition at 200 ppm [7] | mortality at 200 ppm [8] | percent effect (mortality or growth inhibition) at 200 ppm [9] | pest or weed control at 200 ppm [10] | inhibition at 200 ppm [11] | mortality at 200 ppm [12]

CCS(=O)(=O)c1cc(OC)cnc1-c1cn2cnc(SC(F)(F)F)cc2n1 [Compound P5, 2-(3-ethylsulfonyl-5-methoxy-2-pyridyl)-7-(trifluoromethylsulfanyl)imidazo[1,2-c]pyrimidine]
≥ 80%: percent effect (mortality or growth inhibition) at 200 ppm [2] | mortality at 200 ppm [3] | percent effect (mortality or growth inhibition) at 200 ppm [4] | mortality at 200 ppm [5] | mortality at 200 ppm [6] | mortality at 200 ppm [8] | percent effect (mortality or growth inhibition) at 200 ppm [9] | pest or weed control at 200 ppm [10] | inhibition at 200 ppm [11] | mortality at 200 ppm [12]

CCS(=O)(=O)c1cc(OC)cnc1-c1cn2cnc(C(F)(F)F)cc2n1 [Compound P9, 2-(3-ethylsulfonyl-5-methoxy-2-pyridyl)-7-(trifluoromethyl)imidazo[1,2-c]pyrimidine]
≥ 80%: percent effect (mortality or growth inhibition) at 200 ppm [2] | mortality at 200 ppm [3] | mortality at 200 ppm [6] | mortality at 24 ppm [13] | inhibition at 200 ppm [7] | mortality at 200 ppm [8] | percent effect (mortality or growth inhibition) at 200 ppm [9] | pest or weed control at 200 ppm [10] | inhibition at 200 ppm [11] | mortality at 200 ppm [12]

CCS(=O)(=O)c1cc(OC(C)(C)C(N)=O)cnc1-c1cn2cnc(C(F)(F)F)cc2n1 [Compound P12, 2-[[5-ethylsulfonyl-6-[7-(trifluoromethyl)imidazo[1,2-c]pyrimidin-2-yl]-3-pyridyl]oxy]-2-methyl-propanamide]
≥ 80%: percent effect (mortality or growth inhibition) at 200 ppm [4] | mortality at 200 ppm [5] | mortality at 200 ppm [6] | inhibition at 200 ppm [11]

CCS(=O)(=O)c1cc(OCSC)cnc1-c1cn2cnc(C(F)(F)F)cc2n1 [Compound P16, 2-[3-ethylsulfonyl-5-(methylsulfanylmethoxy)-2-pyridyl]-7-(trifluoromethyl)imidazo[1,2-c]pyrimidine]
≥ 80%: mortality at 200 ppm [1] | percent effect (mortality or growth inhibition) at 200 ppm [2] | mortality at 200 ppm [3] | percent effect (mortality or growth inhibition) at 200 ppm [4] | mortality at 200 ppm [5] | mortality at 200 ppm [14] | mortality at 200 ppm [6] | mortality at 24 ppm [13] | inhibition at 200 ppm [7] | percent effect (mortality or growth inhibition) at 200 ppm [9] | pest or weed control at 200 ppm [10] | mortality at 200 ppm [12]

CCS(=O)(=O)c1cc(OC(C)(C)C#N)cnc1-c1cn2cnc(SC(F)(F)F)cc2n1 [Compound P17, 2-[[5-ethylsulfonyl-6-[7-(trifluoromethylsulfanyl)imidazo[1,2-c]pyrimidin-2-yl]-3-pyridyl]oxy]-2-methyl-propanenitrile]
≥ 80%: mortality at 200 ppm [1] | percent effect (mortality or growth inhibition) at 200 ppm [2] | mortality at 200 ppm [3] | percent effect (mortality or growth inhibition) at 200 ppm [4] | mortality at 200 ppm [5] | mortality at 200 ppm [14] | mortality at 200 ppm [6] | mortality at 200 ppm [8] | percent effect (mortality or growth inhibition) at 200 ppm [9] | pest or weed control at 200 ppm [10] | inhibition at 200 ppm [11] | mortality at 200 ppm [12]

CCS(=O)(=O)c1cc(OC(C)(C)C#N)cnc1-c1cn2cnc(C(F)(F)C(F)(F)F)cc2n1 [Compound P18, 2-[[5-ethylsulfonyl-6-[7-(1,1,2,2,2-pentafluoroethyl)imidazo[1,2-c]pyrimidin-2-yl]-3-pyridyl]oxy]-2-methyl-propanenitrile]
≥ 80%: mortality at 200 ppm [1] | percent effect (mortality or growth inhibition) at 200 ppm [2] | mortality at 200 ppm [3] | percent effect (mortality or growth inhibition) at 200 ppm [4] | mortality at 200 ppm [5] | mortality at 200 ppm [14] | mortality at 200 ppm [6] | inhibition at 200 ppm [7] | mortality at 200 ppm [8] | percent effect (mortality or growth inhibition) at 200 ppm [9] | pest or weed control at 200 ppm [10] | mortality at 200 ppm [12]

CCS(=N)(=O)c1cc(OC(C)(C)C#N)cnc1-c1cn2cnc(C(F)(F)C(F)(F)F)cc2n1 (centres unmarked) [Compound P19, 2-[[5-(ethylsulfonimidoyl)-6-[7-(1,1,2,2,2-pentafluoroethyl)imidazo[1,2-c]pyrimidin-2-yl]-3-pyridyl]oxy]-2-methyl-propanenitrile]
≥ 80%: mortality at 200 ppm [1] | percent effect (mortality or growth inhibition) at 200 ppm [2] | mortality at 200 ppm [3] | percent effect (mortality or growth inhibition) at 200 ppm [4] | mortality at 200 ppm [5] | mortality at 200 ppm [14] | mortality at 200 ppm [6] | mortality at 24 ppm [13] | inhibition at 200 ppm [7] | mortality at 200 ppm [8] | percent effect (mortality or growth inhibition) at 200 ppm [9] | pest or weed control at 200 ppm [10] | inhibition at 200 ppm [11] | mortality at 200 ppm [12]
